How the values were obtained:
Assay in all cases: relative viability (nuclei count vs DMSO), 5 days (fraction); higher = more cells survive
[1] = compound: O=C(/C=C/c1ccccc1)NC(NC(=S)Nc1cccc2cccnc12)C(Cl)(Cl)Cl [Salubrinal] + C[C@]1(O)C[C@@H](c2nc(-c3ccc4ccc(-c5ccccc5)nc4c3)c3c(N)nccn32)C1 [Linsitinib] (partner 1 µM)
Outline: (§1)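 Medians of duplicate plates are given as relative viability. That measure is the nuclei count in treated wells divided by the count in vehicle wells. Counts were taken on 4× images of lung cancer cell lines in 1536-well plates, 5 days after pin-tool dosing the day after seeding with one drug alone or a fixed anchor-drug dose plus five library-drug doses (not always all listed) in √10 steps.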

[2] = compound: O=C(/C=C/c1ccccc1)NC(NC(=S)Nc1cccc2cccnc12)C(Cl)(Cl)Cl [Salubrinal] + Cc1nc(NC(=O)N2CCC[C@H]2C(N)=O)sc1-c1ccnc(C(C)(C)C(F)(F)F)c1 [Alpelisib] (partner 2 µM)
Outline: as §1

[3] = compound: O=C(/C=C/c1ccccc1)NC(NC(=S)Nc1cccc2cccnc12)C(Cl)(Cl)Cl [Salubrinal] + COc1cccc2cc(-c3nc([C@H]4CC[C@H](C(=O)O)CC4)n4ncnc(N)c34)[nH]c12 [OSI-027] (partner 0.5 µM)
Outline: as §1

[4] = compound: O=C(/C=C/c1ccccc1)NC(NC(=S)Nc1cccc2cccnc12)C(Cl)(Cl)Cl [Salubrinal] + O=C(CCCCCCC(=O)Nc1ccccc1)NO [Vorinostat] (partner 1 µM)
Outline: as §1

Work on H3255 yielded a relative viability ([1]; first compound 0.08 µM) of 0.982, a relative viability ([1]; first compound 0.253 µM) of 0.905 and a relative viability ([1]; first compound 0.8 µM) of 1.2. It also gave a relative viability ([1]; first compound 2.53 µM) of 1.04, a relative viability ([1]; first compound 8 µM) of 0.974 and a relative viability ([2]; first compound 0.08 µM) of 0.913. For the same cell line, the relative viability ([2]; first compound 0.253 µM) was 0.676, the relative viability ([2]; first compound 0.8 µM) was 0.762 and the relative viability ([2]; first compound 2.53 µM) was 0.693. It also gave a relative viability ([2]; first compound 8 µM) of 0.769, a relative viability ([3]; first compound 0.08 µM) of 0.689 and a relative viability ([3]; first compound 0.253 µM) of 0.553. It also gave a relative viability ([3]; first compound 0.8 µM) of 0.748, a relative viability ([3]; first compound 2.53 µM) of 0.603 and a relative viability ([3]; first compound 8 µM) of 0.603. It also gave a relative viability ([4]; first compound 0.08 µM) of 0.671, a relative viability ([4]; first compound 0.253 µM) of 0.81 and a relative viability ([4]; first compound 0.8 µM) of 0.945. It also gave a relative viability ([4]; first compound 2.53 µM) of 0.765 and a relative viability ([4]; first compound 8 µM) of 0.76.
With NCI-H647 the relative viability ([1]; first compound 0.08 µM) was 1.26, the relative viability ([1]; first compound 0.253 µM) was 1.26 and the relative viability ([1]; first compound 0.8 µM) was 1.48. The relative viability ([1]; first compound 2.53 µM) was 1.07, the relative viability ([1]; first compound 8 µM) was 1.27 and the relative viability ([2]; first compound 0.08 µM) was 1.47. For the same cell line, the relative viability ([2]; first compound 0.253 µM) was 0.438, the relative viability ([2]; first compound 0.8 µM) was 1.54 and the relative viability ([2]; first compound 2.53 µM) was 1.25. It also gave a relative viability ([2]; first compound 8 µM) of 1.08, a relative viability ([3]; first compound 0.08 µM) of 0.76 and a relative viability ([3]; first compound 0.253 µM) of 0.671. It also gave a relative viability ([3]; first compound 0.8 µM) of 0.6, a relative viability ([3]; first compound 2.53 µM) of 0.638 and a relative viability ([3]; first compound 8 µM) of 0.604. The relative viability ([4]; first compound 0.08 µM) was 0.546, the relative viability ([4]; first compound 0.253 µM) was 0.547 and the relative viability ([4]; first compound 0.8 µM) was 0.773. For the same cell line, the relative viability ([4]; first compound 2.53 µM) was 0.504 and the relative viability ([4]; first compound 8 µM) was 0.683.
Work on NCI-H2023 yielded a relative viability ([1]; first compound 0.08 µM) of 0.707, a relative viability ([1]; first compound 0.253 µM) of 0.573 and a relative viability ([1]; first compound 0.8 µM) of 0.676. It also gave a relative viability ([1]; first compound 2.53 µM) of 0.777, a relative viability ([1]; first compound 8 µM) of 0.706 and a relative viability ([2]; first compound 0.08 µM) of 0.679. The relative viability ([2]; first compound 0.253 µM) was 0.586, the relative viability ([2]; first compound 0.8 µM) was 0.688 and the relative viability ([2]; first compound 2.53 µM) was 0.587. The relative viability ([2]; first compound 8 µM) was 0.488, the relative viability ([3]; first compound 0.08 µM) was 0.442 and the relative viability ([3]; first compound 0.253 µM) was 0.354. It also gave a relative viability ([3]; first compound 0.8 µM) of 0.406, a relative viability ([3]; first compound 2.53 µM) of 0.333 and a relative viability ([3]; first compound 8 µM) of 0.268. It also gave a relative viability ([4]; first compound 0.08 µM) of 0.9, a relative viability ([4]; first compound 0.253 µM) of 0.7 and a relative viability ([4]; first compound 0.8 µM) of 0.746. The relative viability ([4]; first compound 2.53 µM) was 0.737 and the relative viability ([4]; first compound 8 µM) was 0.613.
In the case of NCI-H23, the relative viability ([1]; first compound 0.08 µM) is reported as 0.576, the relative viability ([1]; first compound 0.253 µM) is reported as 0.473 and the relative viability ([1]; first compound 0.8 µM) is reported as 0.516. The relative viability ([1]; first compound 2.53 µM) was 0.67, the relative viability ([1]; first compound 8 µM) was 0.535 and the relative viability ([2]; first compound 0.08 µM) was 0.839. It also gave a relative viability ([2]; first compound 0.253 µM) of 0.717, a relative viability ([2]; first compound 0.8 µM) of 0.763 and a relative viability ([2]; first compound 2.53 µM) of 0.685. For the same cell line, the relative viability ([2]; first compound 8 µM) was 0.976, the relative viability ([3]; first compound 0.08 µM) was 0.59 and the relative viability ([3]; first compound 0.253 µM) was 0.573. It also gave a relative viability ([3]; first compound 0.8 µM) of 0.647, a relative viability ([3]; first compound 2.53 µM) of 0.539 and a relative viability ([3]; first compound 8 µM) of 0.606. The relative viability ([4]; first compound 0.08 µM) was 0.784, the relative viability ([4]; first compound 0.253 µM) was 0.614 and the relative viability ([4]; first compound 0.8 µM) was 0.644. The relative viability ([4]; first compound 2.53 µM) was 0.486 and the relative viability ([4]; first compound 8 µM) was 0.69.
NCI-H520 showed a relative viability ([1]; first compound 0.08 µM) of 1.16, a relative viability ([1]; first compound 0.253 µM) of 0.688 and a relative viability ([1]; first compound 0.8 µM) of 1.25. The relative viability ([1]; first compound 2.53 µM) was 1.12, the relative viability ([1]; first compound 8 µM) was 1.17 and the relative viability ([2]; first compound 0.08 µM) was 0.904. It also gave a relative viability ([2]; first compound 0.253 µM) of 0.578, a relative viability ([2]; first compound 0.8 µM) of 1.18 and a relative viability ([2]; first compound 2.53 µM) of 0.878. For the same cell line, the relative viability ([2]; first compound 8 µM) was 0.949, the relative viability ([3]; first compound 0.08 µM) was 0.334 and the relative viability ([3]; first compound 0.253 µM) was 0.22. For the same cell line, the relative viability ([3]; first compound 0.8 µM) was 0.265, the relative viability ([3]; first compound 2.53 µM) was 0.307 and the relative viability ([3]; first compound 8 µM) was 0.337. For the same cell line, the relative viability ([4]; first compound 0.08 µM) was 0.755, the relative viability ([4]; first compound 0.253 µM) was 0.675 and the relative viability ([4]; first compound 0.8 µM) was 0.787. For the same cell line, the relative viability ([4]; first compound 2.53 µM) was 0.638 and the relative viability ([4]; first compound 8 µM) was 0.67.
With NCI-H460 the relative viability ([1]; first compound 0.08 µM) was 1.31, the relative viability ([1]; first compound 0.253 µM) was 0.586 and the relative viability ([1]; first compound 0.8 µM) was 1. The relative viability ([1]; first compound 2.53 µM) was 0.813, the relative viability ([1]; first compound 8 µM) was 0.564 and the relative viability ([2]; first compound 0.08 µM) was 0.615. It also gave a relative viability ([2]; first compound 0.253 µM) of 0.358, a relative viability ([2]; first compound 0.8 µM) of 0.433 and a relative viability ([2]; first compound 2.53 µM) of 0.419. The relative viability ([2]; first compound 8 µM) was 0.451, the relative viability ([3]; first compound 0.08 µM) was 1.21 and the relative viability ([3]; first compound 0.253 µM) was 0.406. The relative viability ([3]; first compound 0.8 µM) was 1.03, the relative viability ([3]; first compound 2.53 µM) was 0.514 and the relative viability ([3]; first compound 8 µM) was 0.317. The relative viability ([4]; first compound 0.08 µM) was 1.18, the relative viability ([4]; first compound 0.253 µM) was 0.74 and the relative viability ([4]; first compound 0.8 µM) was 0.976. The relative viability ([4]; first compound 2.53 µM) was 0.713 and the relative viability ([4]; first compound 8 µM) was 0.511.
For EKVX, the relative viability ([1]; first compound 0.08 µM) was 1.4, the relative viability ([1]; first compound 0.253 µM) was 0.744 and the relative viability ([1]; first compound 0.8 µM) was 1.15. It also gave a relative viability ([1]; first compound 2.53 µM) of 1.01, a relative viability ([1]; first compound 8 µM) of 0.856 and a relative viability ([2]; first compound 0.08 µM) of 1.14. The relative viability ([2]; first compound 0.253 µM) was 0.729, the relative viability ([2]; first compound 0.8 µM) was 1.01 and the relative viability ([2]; first compound 2.53 µM) was 0.887. For the same cell line, the relative viability ([2]; first compound 8 µM) was 0.88, the relative viability ([3]; first compound 0.08 µM) was 0.701 and the relative viability ([3]; first compound 0.253 µM) was 0.641. For the same cell line, the relative viability ([3]; first compound 0.8 µM) was 0.657, the relative viability ([3]; first compound 2.53 µM) was 0.454 and the relative viability ([3]; first compound 8 µM) was 0.673. For the same cell line, the relative viability ([4]; first compound 0.08 µM) was 0.769, the relative viability ([4]; first compound 0.253 µM) was 0.606 and the relative viability ([4]; first compound 0.8 µM) was 0.863. The relative viability ([4]; first compound 2.53 µM) was 0.668 and the relative viability ([4]; first compound 8 µM) was 0.665.
NCI-H1944 showed a relative viability ([1]; first compound 0.08 µM) of 1.28, a relative viability ([1]; first compound 0.253 µM) of 1.23 and a relative viability ([1]; first compound 0.8 µM) of 1.34. For the same cell line, the relative viability ([1]; first compound 2.53 µM) was 1.17, the relative viability ([1]; first compound 8 µM) was 1.15 and the relative viability ([2]; first compound 0.08 µM) was 0.912. It also gave a relative viability ([2]; first compound 0.253 µM) of 0.912, a relative viability ([2]; first compound 0.8 µM) of 0.871 and a relative viability ([2]; first compound 2.53 µM) of 0.871. The relative viability ([2]; first compound 8 µM) was 0.795, the relative viability ([3]; first compound 0.08 µM) was 0.384 and the relative viability ([3]; first compound 0.253 µM) was 0.389. The relative viability ([3]; first compound 0.8 µM) was 0.483, the relative viability ([3]; first compound 2.53 µM) was 0.387 and the relative viability ([3]; first compound 8 µM) was 0.406. For the same cell line, the relative viability ([4]; first compound 0.08 µM) was 0.69, the relative viability ([4]; first compound 0.253 µM) was 0.54 and the relative viability ([4]; first compound 0.8 µM) was 0.662. The relative viability ([4]; first compound 2.53 µM) was 0.504 and the relative viability ([4]; first compound 8 µM) was 0.645.
